Test results published in PMC11152041, “Tricarbonyl rhenium(I) complexes with 8-hydroxyquinolines: structural, chemical, antibacterial, and anticancer characteristics” (RSC Advances, 2024).
In brackets after ≈: the same amount, converted by molar mass. Like-named read-outs stand apart in the source and are kept apart here.

Key:
E. coli ATCC25922 = assay: Broth microdilution MIC/MBC (ISO 20776-1); format: cell-based, Escherichia coli
Protocol: (§1) Bacterial strains and cell lines were obtained from the American Type Culture Collection (ATCC).[59] […] Antimicrobial activity was tested in Müeller Hinton (MH) II broth (Becton Dickinson). For anticancer activity assay, the following reagents from Merk were used: 3-(4,5-dimethylthiazol-2-yl)-2,5-diphenyltetrazolium bromide (MTT), sodium dodecyl sulfate (SDS) and HCl. The solubilized formazan product was spectrophotometrically quantified in a Power Wave XS (Bio Tek, Winooski, VT, USA) microplate reader. The HL-60 and PC-3 cells were grown in RPMI-1640 medium with stable glutamine (Biowest) supplemented with 10% (v/v) of heat-inactivated fetal bovine serum (FBS, Biowest) and 1% (v/v) of antibiotic–antimycotic solution (Biowest). The SKOV-3 cells were grown in McCoy's 5A medium with L-glutamine (Biowest) supplemented with 10% (v/v) heat-inactivated FBS, and 1% (v/v) antibiotic–antimycotic solution. The MCF-7 cells were grown in Eagle's MEM (Minimal Essential Medium) medium with stable glutamine (Biowest), supplemented with 10% (v/v) heat-inactivated FBS 1% (v/v) MEM non-essential amino acids (Biowest), 1% (v/v) antibiotic–antimycotic solution, and 1 mM sodium pyruvate (Merck). The MCF-10A cells were grown in Ham's F-12K (Kaighn's) Medium with stable glutamine (Gibco) supplemented with 5% (v/v) heat-inactivated FBS, 1% (v/v) MEM non-essential amino acids, 1% (v/v) antibiotic–antimycotic solution, 5 μg mL^−1 insulin, 0.04 μg mL^−1 hydrocortisone (Merck), and 15 ng mL^−1 human Epidermal Growth Factor (hEGF, PeproTech).
(§2) The in vitro antibacterial activity was determined according to ISO 20776-1.[88] Among the tested microorganisms were Gram-negative rods, E. coli ATCC25922 and P. aeruginosa ATCC27853, and Gram-positive cocci, S. aureus ATCC29213 and E. faecalis ATCC29212. The selected bacterial species represented the most common etiologic agents of human infections and are used for quality control of antimicrobial susceptibility testing.[89] The test procedure included the determination of MICs and MBCs of complexes and their free ligands. MIC and MBC determinations of ciprofloxacin, as the reference antibiotic, were also performed. All compounds were dissolved in DMSO to reach the maximum 512 mg L^−1 concentration. […] The assay consisted of preparing 2-fold dilutions of the substances in a liquid growth medium MH II and inoculating them with a standardized suspension of microorganisms at a McFarland density of 0.5 (≈10^8 CFU mL^−1). The culture plates were incubated at 35 °C for 24 h. The lowest concentration of the compound inhibiting visible bacterial growth was specified as MIC, and the concentration that reduced bacterial growth by >99.99% after counting live bacteria on the plates compared to the positive control was defined as MBC.

P. aeruginosa ATCC27853 = assay: Broth microdilution MIC/MBC (ISO 20776-1); format: cell-based, Pseudomonas aeruginosa
Protocol: as §1, §2

S. aureus ATCC29213 = assay: Broth microdilution MIC/MBC (ISO 20776-1); format: cell-based, Staphylococcus aureus
Protocol: as §1, §2

E. faecalis ATCC29212 = assay: Broth microdilution MIC/MBC (ISO 20776-1); format: cell-based, Enterococcus faecalis
Protocol: as §1, §2

HL-60 cells = assay: MTT cytotoxicity assay; format: cell-based, human; conditions: read-out: IC50 ± SD
Protocol: (§3) The cytotoxicities for studied compounds were evaluated against leukemia cells (HL-60), as well as ovarian (SKOV-3), prostate (PC-3), and breast (MCF-7) cancer cell lines. The potential selectivity of these compounds towards cancer cells was assessed by determination of their cytotoxicities towards breast non-cancerous cells (MCF-10A). For comparison, cisplatin was added to the cytotoxicity assays.
as §1
(§4) The cells were cultured in 96-well plates and incubated with the tested compound for 24 h and 48 h. All experiments were performed in exponentially growing cultures. The 0.03 M solutions of the compounds in DMSO were appropriately diluted using culture media. The maximal final concentration of DMSO in each well was 0.1%. The cytotoxicity of the compounds was measured by determining cell viability with a colorimetric test based on 3-(4,5-dimethylthiazol-2-yl)-2,5-diphenyltetrazolium bromide (MTT). MTT stock solution was added to each well to a final concentration of 0.5 mg mL^−1 and incubated for 4 h at 37 °C; following formazan crystals were dissolved by the addition of sodium dodecyl sulfate (SDS) solution (10% SDS in 0.001 M HCl). MTT and SDS were added directly to the cell culture. The compound's IC50 values (concentration required to reduce the viability of cells by 50% compared with the control cells) were calculated from the data obtained with the MTT assay.

MCF-7 cells = assay: MTT cytotoxicity assay; format: cell-based, human; conditions: read-out: IC50 ± SD
Protocol: as §3, §1, §4

PC-3 cells = assay: MTT cytotoxicity assay; format: cell-based, human; conditions: read-out: IC50 ± SD
Protocol: as §3, §1, §4

SKOV-3 cells = assay: MTT cytotoxicity assay; format: cell-based, human; conditions: read-out: IC50 ± SD
Protocol: as §3, §1, §4

MCF-10A cells = assay: MTT cytotoxicity assay
Protocol: as §3, §1, §4

[1] = tested on: solid tumor cells (SKOV-3, PC-3, MCF-7); assay: MTT cytotoxicity assay, solid tumor cell lines taken together; format: cell-based; conditions: Homo sapiens, read-out: IC50 against solid tumor cells
Protocol: For comparison, cisplatin was added to the cytotoxicity assays.
All experiments were performed in exponentially growing cultures.

[2] = tested on: human cervical adenocarcinoma (HeLa) cells; conditions: cited from earlier work
[3] = Stability of the complexes in DMSO by NMR (exchange of pyrazole ligand with DMSO); format: physicochemical
Protocol: In 3, after two days, an equilibrium between the Hdmpz and DMSO complexes stabilizes at 77% to 23% ratio (Fig. S34 ^†). Complex 3 can be recovered from the mixture by DMSO evaporation and the complex with water is even weaker. In the case of 3-phenylpyrazole in 8, the complex amount drops to 50% immediately after dissolving and after 24 h reaches ratio of 39% to 61% (Fig. S35 ^†).
The chemicals were purchased from Sigma-Aldrich and only 5-chloro-8-hydroxyquinoline from TCI. Their purity was 98 or 99% (for 3-phenylpyrazole – 97%). Anhydrous solvents with HPLC grade (≥99.9%) were applied. All chemicals were used without further purification. Elemental analysis was performed on an Elementar Vario EL III analyzer. UV-Vis spectra of methanol solutions were recorded in the 200–900 nm range with a Jasco V-750 spectrometer. Infrared absorption spectra in the 400–4000 cm^−1 range were recorded with a Thermo Scientific Nicolet iS10 FT-IR spectrometer using KBr pellets. ^1H and ^13C NMR spectra of DMSO-d6 or CDCl3 solutions were recorded at 25 °C on a Varian VNMRS-500 or Varian 400MR spectrometer operated at 499.8 and 400 MHz, respectively. The NMR spectra were referenced to the internal reference of tetramethylsilane (TMS).

[4] = E. coli ATCC25922, >99.99% reduction of growth
[5] = E. coli ATCC25922, MH II broth, 35 °C, 24 h
[6] = P. aeruginosa ATCC27853, >99.99% reduction of growth
[7] = P. aeruginosa ATCC27853, MH II broth, 35 °C, 24 h
[8] = S. aureus ATCC29213, >99.99% reduction of growth
[9] = S. aureus ATCC29213, MH II broth, 35 °C, 24 h
[10] = E. faecalis ATCC29212, >99.99% reduction of growth
[11] = E. faecalis ATCC29212, MH II broth, 35 °C, 24 h
[12] = read-out: IC50 ± SD, MCF-10A (non-cancerous), 24 h, MTT, * precipitation of the complex
[13] = read-out: IC50 ± SD, MCF-10A (non-cancerous), 48 h, MTT, * precipitation of the complex

Structure (SMILES) | MBC (E. coli ATCC25922; [4]) | MIC (E. coli ATCC25922; [5]) | MBC (P. aeruginosa ATCC27853; [6]) | MIC (P. aeruginosa ATCC27853; [7]) | MBC (S. aureus ATCC29213; [8]) | MIC (S. aureus ATCC29213; [9]) | MBC (E. faecalis ATCC29212; [10]) [µg/mL] | MIC (E. faecalis ATCC29212; [11]) [µg/mL] | IC50 (HL-60 cells; HL-60, 24 h, MTT) [µM] | IC50 (HL-60 cells; HL-60, 48 h, MTT) [µM] | IC50 (MCF-7 cells; MCF-7, 24 h, MTT) [µM] | IC50 (MCF-7 cells; MCF-7, 48 h, MTT) [µM] | IC50 (PC-3 cells; PC-3, 24 h, MTT) [µM] | IC50 (PC-3 cells; PC-3, 48 h, MTT) [µM] | IC50 (SKOV-3 cells; SKOV-3, 24 h, MTT) [µM] | IC50 (SKOV-3 cells; SKOV-3, 48 h, MTT) [µM] | IC50 (MCF-10A cells; [12]) [µM] | IC50 (MCF-10A cells; [13]) [µM] | other results
Cc1ccc2cccc(O)c2n1 [MeHQ, 2-methyl-8-hydroxyquinoline, reference compound] |  |  |  |  |  |  |  |  |  |  |  |  |  |  |  |  |  |  | MBC (E. coli ATCC25922; Escherichia coli, ATCC25922): > 512 µg/mL; MIC (E. coli ATCC25922; Escherichia coli, ATCC25922, 24 h): 32 µg/mL (≈ 201 µM); MBC (P. aeruginosa ATCC27853; Pseudomonas aeruginosa, ATCC27853): > 512 µg/mL; MIC (P. aeruginosa ATCC27853; Pseudomonas aeruginosa, ATCC27853, 24 h): 256 µg/mL (≈ 1610 µM); MBC (S. aureus ATCC29213; Staphylococcus aureus, ATCC29213): 128 µg/mL (≈ 804 µM); MIC (S. aureus ATCC29213; Staphylococcus aureus, ATCC29213, 24 h): 32 µg/mL (≈ 201 µM); MBC (E. faecalis ATCC29212; Enterococcus faecalis, ATCC29212): 32 µg/mL (≈ 201 µM); MIC (E. faecalis ATCC29212; Enterococcus faecalis, ATCC29212, 24 h): 32 µg/mL (≈ 201 µM); IC50 (HL-60 cells; Homo sapiens, HL-60, 24 h): 27 ± 2 µM; IC50 (HL-60 cells; Homo sapiens, HL-60, 48 h): 18 ± 2 µM; IC50 (MCF-7 cells; Homo sapiens, MCF7, 24 h): > 100 µM; IC50 (MCF-7 cells; Homo sapiens, MCF7, 48 h): > 100 µM; IC50 (PC-3 cells; Homo sapiens, PC-3, 24 h): 62 ± 8 µM; IC50 (PC-3 cells; Homo sapiens, PC-3, 48 h): > 100 µM; IC50 (SKOV-3 cells; Homo sapiens, SK-OV-3, 24 h): > 100 µM; IC50 (SKOV-3 cells; Homo sapiens, SK-OV-3, 48 h): > 100 µM; IC50 (MCF-10A cells; Homo sapiens, MCF-10A, 24 h, read-out: IC50 ± SD): > 100 µM; IC50 (MCF-10A cells; Homo sapiens, MCF-10A, 48 h, read-out: IC50 ± SD): > 100 µM; IC50 [1]: > 100 µM
C1N2CN3CN1CP(C2)C3.[C-]#[O+].[C-]#[O+].[C-]#[O+].[Re][O]c1cccc2cccnc12 [[Re(CO)3(Q)(PTA)]] |  |  |  |  |  |  |  |  |  |  |  |  |  |  |  |  |  |  | cytotoxicity [2]: moderate activity
Cc1cc(C)[nH]n1.[C-]#[O+].[C-]#[O+].[C-]#[O+].[Re][O]c1cccc2cccnc12 [complex 3, [Re(CO)3(Q)Hdmpz]] | >512/>512 mg L^−1 | >512/>512 mg L^−1 | >512/>512 mg L^−1 | >512/>512 mg L^−1 | 512/>512 mg L^−1 | 512/>512 mg L^−1 | 512 | 128 | 7 ± 2 | 6 ± 1 | 19 ± 2 | 29 ± 5 | 14 ± 2 | 16 ± 2 | 32 ± 7 | 31 ± 7 | > 100 | > 100 | IC50 / activity on normal cells (MCF-10A cells; MCF-10A, incubation time not given): no activity; IC50 (MCF-10A cells; read-out: IC50 / activity on normal cells, MCF-10A, incubation time not given): > 100 µM; share of the DMSO complex at equilibrium ([3]; after two days): 23%; share of the Hdmpz complex at equilibrium with the DMSO complex ([3]; after two days): 77%
Cc1ccc2cccc([O][Re])c2n1.[C-]#[O+].[C-]#[O+].[C-]#[O+].c1ccc(-c2ccn[nH]2)cc1 [complex 8, [Re(CO)3(MeQ)HPhpz]] | >512/>512 mg L^−1 | >512/>512 mg L^−1 | >512/>512 mg L^−1 | >512/>512 mg L^−1 | > 512 µg/mL | 128 µg/mL | > 512 | 32 | 9 ± 1 | 8 ± 1 | 68 ± 4 | 53 ± 3 | 39 ± 5 | 31 ± 5 | > 100 | 41 ± 7 | 36 ± 1 | 21 ± 4 | share of the DMSO complex ([3]; after 24 h): 61%; share of the HPhpz complex ([3]; after 24 h): 39%; complex amount ([3]; immediately after dissolving): 50%
